# Literature values as cited in US20100143341A1, “THIENOPYRIMIDINES FOR PHARMACEUTICAL COMPOSITIONS” (DEVELOGEN AKTIENGESELLSCHAFT, priority 2005, published 2010).
# Legend:
# human Mnk2 protein = human Mnk2 protein (Homo sapiens, UniProt Q9HBH9); details: described in WO 02/103361
# phosphorylated eIF4E = details: cell culture cells transfected with Mnk2 (Mnk2a or Mnk2b) or Mnk1
# Chain of human Mnk2 protein (Q9HBH9 whole entry): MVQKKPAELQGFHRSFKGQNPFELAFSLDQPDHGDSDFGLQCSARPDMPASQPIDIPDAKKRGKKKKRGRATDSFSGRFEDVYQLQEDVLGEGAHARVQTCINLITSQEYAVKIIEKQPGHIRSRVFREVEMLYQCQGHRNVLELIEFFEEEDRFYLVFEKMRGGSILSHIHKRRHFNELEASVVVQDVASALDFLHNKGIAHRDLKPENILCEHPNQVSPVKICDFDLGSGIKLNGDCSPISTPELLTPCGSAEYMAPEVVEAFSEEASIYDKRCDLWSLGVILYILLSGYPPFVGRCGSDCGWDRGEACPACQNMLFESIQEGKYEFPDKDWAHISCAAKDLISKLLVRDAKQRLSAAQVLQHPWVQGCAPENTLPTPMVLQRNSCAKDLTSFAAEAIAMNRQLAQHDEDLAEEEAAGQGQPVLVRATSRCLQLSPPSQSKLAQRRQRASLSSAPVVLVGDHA
SMILES,binds the human Mnk2 protein (human Mnk2 protein),reduction of phosphorylated eIF4E (phosphorylated eIF4E)
COC(=O)c1ccc(O)cc1 [4-hydroxybenzoic acid methyl ester],binds,–
Nc1ncnc2n[nH]c(Nc3ccc(F)cc3)c12 [CGP57380],–,strong reduction
